Consider six molecules from article PMC12557437, “Research towards selective inhibition of the CLK3 kinase” (Beilstein Journal of Organic Chemistry, 2025).

Test [1] relates to CLK1. As to conditions: human protein kinase; ref 17 (SM08502), 19 (T3), 20-21 (CX-4945), 24 (DB18); cited from earlier work.
The subject of test [2] is CLK2. As to conditions: human protein kinase; ref 17 (SM08502), 19 (T3), 20-21 (CX-4945), 24 (DB18); cited from earlier work.
In test [3] the test system is CLK3. As to conditions: human protein kinase; ref 17 (SM08502), 19 (T3), 20-21 (CX-4945), 24 (DB18); cited from earlier work.
Test [4] deals with CLK4. The following applies: human protein kinase; ref 17 (SM08502), 20-21 (CX-4945), 24 (DB18); cited from earlier work.
Test [5] has as its system DYRK1A. As to conditions: human protein kinase; ref 17 (SM08502), 19 (T3), 20-21 (CX-4945), 24 (DB18); cited from earlier work.
In test [6] the target is CLK1. More on the design: method as in PMID 29769258. The following applies: human protein kinase; cited from earlier work.
In test [7] the target is CLK2. More on the design: method as in PMID 29769258. The following applies: human protein kinase; cited from earlier work.
Test [8] deals with CLK3. Also on record: method as in PMID 29769258. The following applies: human protein kinase; cited from earlier work.
Test [9] deals with CLK4. Also on record: method as in PMID 29769258. As to conditions: human protein kinase; cited from earlier work.
The target of test [10] is DYRK1A. Also on record: method as in PMID 29769258. As to conditions: human protein kinase; cited from earlier work.
Test [11] deals with DYRK1B. Also on record: method as in PMID 29769258. The following applies: human protein kinase; cited from earlier work.
Test [12] has as its target DYRK2. Also on record: method as in PMID 29769258. As to conditions: human protein kinase; cited from earlier work.
The test system of test [13] is DYRK1B. More on the design: method as in earlier work. As to conditions: human protein kinase; ref 17 (SM08502), 19 (T3); cited from earlier work.
The subject of test [14] is DYRK2. Also on record: method as in PMID 31560935. As to conditions: human protein kinase; cited from earlier work.
Test [15] concerns the target T1, Mm_CLK4 (Mus musculus, UniProt O35493). As to conditions: data taken from ref 23-24; cited from earlier work.
Test [16] concerns the target T2, Rn_DYRK1A (Rattus norvegicus, UniProt Q63470). The following applies: data taken from ref 23-24; cited from earlier work.
The next test concerns the target Hs_CDK5/p25 (Homo sapiens, UniProt Q00535). In words: primary screening, short panel of mammalian kinases. Format: biochemical. As to conditions: ATP 10 µM, means, n = 2, read-out: Residual kinase activity Hs_CDK5/p25. The source says: (§1) Our molecules have been submitted first to a primary screening against a panel of eight disease-related kinases: five members of the CMGC (for CDK, MAPK, GSK3, and CLK) group (CDK5/p25, CDK9/CyclinT, GSK3β, CLK1 and DYRK1A), one CAMK (calmodulin/calcium regulated kinase PIM1), one CK1 (the casein kinase CK1ε), and haspin as a […] kinase.
(§2) Figure 4 Primary evaluation of the inhibition of the new quinazolines against a short panel of mammalian kinases. Residual kinase activities are expressed in % of maximal activity, i.e., measured in the absence of inhibitor but with an equivalent dose of DMSO (solvent of the tested compounds). ATP concentration used in the kinase assays was 10 µM (values are means, n = 2). Kinases are from human origin (Homo sapiens) except CLK1 (from Mus musculus) and DYRK1A (from Rattus norvegicus). […]

In a further test the target is Hs_CDK9/CyclinT (Homo sapiens, UniProt P50750). The description is as above. The format is biochemical. As to conditions: ATP 10 µM, means, n = 2, read-out: Residual kinase activity Hs_CDK9/CyclinT.
Excerpt: as §1, §2

The next test has as its target Hs_CK1ε (Homo sapiens, UniProt P49674). Described as above. As to conditions: ATP 10 µM, means, n = 2, read-out: Residual kinase activity Hs_CK1ε. The format is biochemical.
Excerpt: as §1, §2

A further test concerns the target Hs_GSK3β (Homo sapiens, UniProt P49841). The description is as above. As to conditions: ATP 10 µM, means, n = 2, read-out: Residual kinase activity Hs_GSK3β. The format is biochemical.
Excerpt: as §1, §2

Another test addresses T3, Hs_HASPIN (Homo sapiens, UniProt Q8TF76).
T3 sequence (Q8TF76 1-798): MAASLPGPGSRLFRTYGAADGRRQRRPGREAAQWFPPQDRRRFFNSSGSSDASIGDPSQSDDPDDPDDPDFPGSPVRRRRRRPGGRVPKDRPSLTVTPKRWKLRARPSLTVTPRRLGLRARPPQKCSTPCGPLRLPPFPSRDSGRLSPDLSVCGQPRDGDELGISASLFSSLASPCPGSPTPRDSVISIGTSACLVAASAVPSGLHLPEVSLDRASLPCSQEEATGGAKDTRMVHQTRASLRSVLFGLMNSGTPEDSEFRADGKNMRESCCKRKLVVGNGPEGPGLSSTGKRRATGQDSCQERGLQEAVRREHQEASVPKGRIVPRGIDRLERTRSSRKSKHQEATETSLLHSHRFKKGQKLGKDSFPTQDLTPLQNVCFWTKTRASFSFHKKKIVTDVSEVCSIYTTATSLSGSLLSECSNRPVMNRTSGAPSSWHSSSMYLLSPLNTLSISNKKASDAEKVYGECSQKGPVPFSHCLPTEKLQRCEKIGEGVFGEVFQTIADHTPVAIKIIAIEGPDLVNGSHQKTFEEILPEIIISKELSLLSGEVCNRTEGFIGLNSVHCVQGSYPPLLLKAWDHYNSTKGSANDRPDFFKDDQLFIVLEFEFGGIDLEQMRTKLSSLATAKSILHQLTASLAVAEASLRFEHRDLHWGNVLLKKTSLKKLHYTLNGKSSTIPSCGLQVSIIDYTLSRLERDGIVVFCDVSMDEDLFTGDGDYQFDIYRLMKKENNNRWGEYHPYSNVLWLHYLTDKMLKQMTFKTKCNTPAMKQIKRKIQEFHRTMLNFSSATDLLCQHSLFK
The test is described as above. The format is biochemical. The following applies: ATP 10 µM, means, n = 2, read-out: Residual kinase activity Hs_HASPIN.
Excerpt: as §1, §2

Another test has as its target Hs_PIM1 (Homo sapiens, UniProt P11309). The test is described as above. Format: biochemical. The following applies: ATP 10 µM, means, n = 2, read-out: Residual kinase activity Hs_PIM1.
Excerpt: as §1, §2

Test [17] concerns the target T4, Mm_CLK1 (Mus musculus, UniProt P22518). The test is described as above. Format: biochemical.
Excerpt: as §1, §2

Test [18] addresses T2, Rn_DYRK1A. Described as above. The following applies: ATP 10 µM, means, n = 2, read-out: Residual kinase activity Rn_DYRK1A. Format: biochemical.
Excerpt: as §1, §2

Test [19] has as its target T4, Mm_CLK1. Put plainly: radiometric γ33P-ATP kinase assay (Eurofins). Format: biochemical. As to the method: (§3) The results are reported in Table 2 and in Supporting Information File 1.
(§4) 2- Kinase inhibition studies
(§5) Kinase enzymatic activities were assayed using both luminescent ADP detection assay
(§6) (ADP-GloTM assay kit, Promega, Madison, WI) or radiometric kinase assay. These
(§7) assays were performed using the protocols described in our previous publication. […]
(§8) 1.Brahmaiah, D.; Kanaka Durga Bhavani, A.; Aparna, P.; Sampath Kumar, N.; Solhi,
(§9) H.; Le Guevel, R.; Baratte, B.; Ruchaud, S.; Bach, S.; Singh Jadav, S.; Raji Reddy, C.;
(§10) Roisnel, T.; Mosset, P.; Levoin, N.; Grée, R. Bioorg.
(§11) R.; Baratte, B.; Robert, T.; Ruchaud, S.; Bach, S.; Jadav, S. S.; Reddy, C. […]

The target in a further test is Mm_CLK2 (Mus musculus, UniProt O35491). In words: radiometric γ33P-ATP kinase assay (Eurofins). The format is biochemical. How it is done: as §3, §4, §5, §6, §7, §8, §9, §10, §11
For test [20], the target named is T1, Mm_CLK4. In words: radiometric γ33P-ATP kinase assay (Eurofins). The format is biochemical. As to the method: as §3, §4, §5, §6, §7, §8, §9, §10, §11
The next test deals with Mm_CLK3 (Mus musculus, UniProt O35492). In words: radiometric γ33P-ATP kinase assay (Eurofins). Format: biochemical. The following applies: 15 µM ATP; dose-response, points in duplicate. How it is done:
as §3, §4, §5, §6, §7, §8, §9, §10
R.; Baratte, B.; Robert, T.; Ruchaud, S.; Bach, S.; Jadav, S. S.; Reddy, C. R.; Mosset,
P.; Gouault, N.; Levoin, N.; Grée, R. Molecules 2022, 27, 6149. […]

Setting [21] is: 15 µM ATP, dose-response, points in duplicate.

Several values for one entry are separate records, joined by “and”; a condition that tells them apart may be missing. Equal entries are not always repeated. Where two headings read alike, the source gives them in different places. Some results are limits rather than exact numbers.

T1 sequence (O35493 whole entry): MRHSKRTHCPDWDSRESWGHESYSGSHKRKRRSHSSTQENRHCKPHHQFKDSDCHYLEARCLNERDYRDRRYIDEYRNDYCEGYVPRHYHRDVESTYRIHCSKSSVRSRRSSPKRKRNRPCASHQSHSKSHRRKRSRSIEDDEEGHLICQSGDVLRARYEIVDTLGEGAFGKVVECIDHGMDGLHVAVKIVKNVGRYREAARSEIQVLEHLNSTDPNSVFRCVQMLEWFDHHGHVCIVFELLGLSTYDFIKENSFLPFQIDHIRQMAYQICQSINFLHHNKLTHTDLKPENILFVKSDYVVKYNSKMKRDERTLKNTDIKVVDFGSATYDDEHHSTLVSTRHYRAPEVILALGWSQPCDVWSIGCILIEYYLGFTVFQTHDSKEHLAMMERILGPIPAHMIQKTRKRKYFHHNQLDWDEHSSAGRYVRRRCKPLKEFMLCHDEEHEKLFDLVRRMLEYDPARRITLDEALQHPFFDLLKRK
T4 sequence (P22518 whole entry): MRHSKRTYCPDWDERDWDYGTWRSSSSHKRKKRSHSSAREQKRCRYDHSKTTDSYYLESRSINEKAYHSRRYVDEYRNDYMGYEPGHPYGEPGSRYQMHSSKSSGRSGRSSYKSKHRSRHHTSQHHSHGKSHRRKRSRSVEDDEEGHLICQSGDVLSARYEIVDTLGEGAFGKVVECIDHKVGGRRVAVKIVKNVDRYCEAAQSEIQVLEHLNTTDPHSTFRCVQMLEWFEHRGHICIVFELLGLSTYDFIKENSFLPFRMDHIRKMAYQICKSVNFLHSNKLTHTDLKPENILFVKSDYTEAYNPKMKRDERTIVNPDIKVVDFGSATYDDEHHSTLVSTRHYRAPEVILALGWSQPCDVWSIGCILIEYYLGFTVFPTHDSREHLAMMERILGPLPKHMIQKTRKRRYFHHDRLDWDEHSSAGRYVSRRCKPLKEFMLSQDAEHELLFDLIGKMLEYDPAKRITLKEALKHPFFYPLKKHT
Sequence of Hs_GSK3β (P49841 whole entry): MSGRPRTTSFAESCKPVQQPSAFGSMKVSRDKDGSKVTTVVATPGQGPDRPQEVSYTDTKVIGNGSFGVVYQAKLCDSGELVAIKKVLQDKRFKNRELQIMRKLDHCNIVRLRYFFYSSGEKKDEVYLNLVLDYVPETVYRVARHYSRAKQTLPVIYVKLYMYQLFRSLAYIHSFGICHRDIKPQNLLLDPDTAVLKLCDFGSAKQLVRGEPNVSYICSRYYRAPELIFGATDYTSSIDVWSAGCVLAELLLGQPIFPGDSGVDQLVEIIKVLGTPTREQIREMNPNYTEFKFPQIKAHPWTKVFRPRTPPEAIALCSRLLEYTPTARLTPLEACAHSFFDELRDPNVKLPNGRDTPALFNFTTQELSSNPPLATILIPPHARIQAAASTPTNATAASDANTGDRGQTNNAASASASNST
Sequence of Hs_CDK5/p25 (Q00535 whole entry): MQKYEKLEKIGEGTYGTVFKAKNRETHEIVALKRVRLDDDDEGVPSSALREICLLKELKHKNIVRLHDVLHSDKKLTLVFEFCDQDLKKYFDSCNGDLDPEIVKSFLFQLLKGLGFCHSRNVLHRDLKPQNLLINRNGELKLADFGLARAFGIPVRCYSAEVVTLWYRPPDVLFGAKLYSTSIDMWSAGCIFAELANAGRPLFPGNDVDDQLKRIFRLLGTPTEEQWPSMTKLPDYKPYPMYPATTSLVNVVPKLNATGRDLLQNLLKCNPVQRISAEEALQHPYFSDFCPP
Sequence of Hs_CDK5/p25 (Q15078 99-307 partner limits assumed): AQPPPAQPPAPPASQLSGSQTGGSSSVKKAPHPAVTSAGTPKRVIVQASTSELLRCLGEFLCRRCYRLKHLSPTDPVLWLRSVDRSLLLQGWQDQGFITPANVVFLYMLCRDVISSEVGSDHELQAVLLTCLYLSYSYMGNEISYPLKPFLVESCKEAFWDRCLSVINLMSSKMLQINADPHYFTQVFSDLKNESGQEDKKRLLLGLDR
Sequence of Mm_CLK3 (O35492 whole entry): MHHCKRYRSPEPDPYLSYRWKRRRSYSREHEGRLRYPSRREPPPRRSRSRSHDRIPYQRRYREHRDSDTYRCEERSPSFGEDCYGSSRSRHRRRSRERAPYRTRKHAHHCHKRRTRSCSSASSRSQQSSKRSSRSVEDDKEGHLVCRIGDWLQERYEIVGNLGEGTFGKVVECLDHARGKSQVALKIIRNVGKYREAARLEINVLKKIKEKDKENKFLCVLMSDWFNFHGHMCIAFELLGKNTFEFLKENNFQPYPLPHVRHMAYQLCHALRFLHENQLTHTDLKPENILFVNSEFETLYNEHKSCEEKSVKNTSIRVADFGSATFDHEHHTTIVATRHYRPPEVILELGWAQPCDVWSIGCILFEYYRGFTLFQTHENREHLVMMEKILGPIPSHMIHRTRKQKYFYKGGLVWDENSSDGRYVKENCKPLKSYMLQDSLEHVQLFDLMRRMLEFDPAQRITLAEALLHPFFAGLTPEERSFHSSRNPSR
Sequence of Hs_CDK9/CyclinT (P50750 whole entry): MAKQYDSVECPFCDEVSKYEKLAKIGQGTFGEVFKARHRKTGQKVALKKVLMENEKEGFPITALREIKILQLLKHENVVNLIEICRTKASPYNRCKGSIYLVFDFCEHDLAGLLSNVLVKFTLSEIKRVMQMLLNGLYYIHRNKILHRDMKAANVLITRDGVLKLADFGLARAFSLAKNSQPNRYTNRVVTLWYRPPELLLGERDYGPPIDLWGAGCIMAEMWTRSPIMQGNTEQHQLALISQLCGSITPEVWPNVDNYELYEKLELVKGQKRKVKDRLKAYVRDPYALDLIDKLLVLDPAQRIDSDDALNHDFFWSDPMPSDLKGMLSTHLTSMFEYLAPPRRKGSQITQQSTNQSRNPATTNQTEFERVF
Sequence of Hs_CDK9/CyclinT (O60563 whole entry partner): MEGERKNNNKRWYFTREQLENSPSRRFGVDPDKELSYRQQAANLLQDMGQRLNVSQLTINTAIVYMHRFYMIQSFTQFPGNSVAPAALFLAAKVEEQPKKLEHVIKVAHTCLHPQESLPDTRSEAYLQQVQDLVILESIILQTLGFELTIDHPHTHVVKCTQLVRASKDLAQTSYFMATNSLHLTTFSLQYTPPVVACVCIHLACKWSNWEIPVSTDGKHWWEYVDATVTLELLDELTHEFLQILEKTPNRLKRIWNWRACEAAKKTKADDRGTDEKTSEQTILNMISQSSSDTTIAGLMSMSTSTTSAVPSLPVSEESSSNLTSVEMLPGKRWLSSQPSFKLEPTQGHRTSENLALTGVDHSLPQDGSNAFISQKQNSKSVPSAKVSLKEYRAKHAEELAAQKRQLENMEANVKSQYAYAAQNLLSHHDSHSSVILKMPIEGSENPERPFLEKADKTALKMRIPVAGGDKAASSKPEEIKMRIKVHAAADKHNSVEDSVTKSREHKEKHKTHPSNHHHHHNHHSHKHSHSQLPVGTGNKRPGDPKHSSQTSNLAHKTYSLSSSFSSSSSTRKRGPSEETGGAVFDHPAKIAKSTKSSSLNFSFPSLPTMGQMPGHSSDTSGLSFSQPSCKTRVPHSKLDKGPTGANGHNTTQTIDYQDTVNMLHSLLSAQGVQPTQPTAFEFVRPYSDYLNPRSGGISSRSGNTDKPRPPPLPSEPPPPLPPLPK
Sequence of Hs_PIM1 (P11309 whole entry): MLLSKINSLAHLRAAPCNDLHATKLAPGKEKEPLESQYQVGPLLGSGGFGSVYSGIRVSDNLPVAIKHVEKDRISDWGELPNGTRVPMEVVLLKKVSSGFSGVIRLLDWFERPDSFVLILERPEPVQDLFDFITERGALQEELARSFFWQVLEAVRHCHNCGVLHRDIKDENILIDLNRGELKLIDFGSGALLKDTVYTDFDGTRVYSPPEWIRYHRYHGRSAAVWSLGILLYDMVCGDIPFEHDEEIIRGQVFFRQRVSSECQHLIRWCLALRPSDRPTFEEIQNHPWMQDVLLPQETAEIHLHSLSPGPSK
Sequence of Hs_CK1ε (P49674 whole entry): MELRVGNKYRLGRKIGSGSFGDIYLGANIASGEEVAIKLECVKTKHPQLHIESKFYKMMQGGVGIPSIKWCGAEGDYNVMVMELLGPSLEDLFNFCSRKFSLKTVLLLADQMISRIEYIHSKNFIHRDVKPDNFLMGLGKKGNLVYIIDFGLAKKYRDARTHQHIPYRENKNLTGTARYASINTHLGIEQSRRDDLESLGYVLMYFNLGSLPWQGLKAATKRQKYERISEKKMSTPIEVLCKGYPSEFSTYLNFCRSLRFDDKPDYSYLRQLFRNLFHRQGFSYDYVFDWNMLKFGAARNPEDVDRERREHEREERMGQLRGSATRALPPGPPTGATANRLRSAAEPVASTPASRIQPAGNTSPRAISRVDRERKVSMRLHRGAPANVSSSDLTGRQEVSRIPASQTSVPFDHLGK
Sequence of Mm_CLK2 (O35491 whole entry): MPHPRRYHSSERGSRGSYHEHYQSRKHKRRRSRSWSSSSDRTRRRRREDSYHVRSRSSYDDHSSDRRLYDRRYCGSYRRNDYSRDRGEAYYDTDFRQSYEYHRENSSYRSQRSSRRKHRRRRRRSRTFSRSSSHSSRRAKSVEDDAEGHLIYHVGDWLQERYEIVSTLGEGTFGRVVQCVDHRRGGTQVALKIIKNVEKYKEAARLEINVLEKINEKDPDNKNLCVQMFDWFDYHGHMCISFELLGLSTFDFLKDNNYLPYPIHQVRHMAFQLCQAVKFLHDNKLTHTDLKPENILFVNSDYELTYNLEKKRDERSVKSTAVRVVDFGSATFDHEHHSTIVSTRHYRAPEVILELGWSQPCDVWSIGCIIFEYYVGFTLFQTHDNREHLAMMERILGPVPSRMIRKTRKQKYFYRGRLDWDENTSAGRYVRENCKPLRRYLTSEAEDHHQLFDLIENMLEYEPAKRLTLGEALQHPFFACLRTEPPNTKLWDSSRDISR

In general, IC50 refers to the concentration that inhibits the measured activity by half. Turning to `O=C(O)c1ccc2c(c1)nc(Nc1cccc(Cl)c1)c1ccncc12` [CX-4945], the IC50 with CLK1 [1] was 3.3 nM; in the test on CLK2 [2] it was 2.9 nM; in the test on CLK3 [3], 67 nM; in the test with CLK4 [4], 23 nM; in the test on DYRK1A [5] it was […].

One may read the Kd as the concentration at which binding is half-saturated. With `CNc1nc(NCc2cnccn2)c2c(-c3ccc4ncccc4c3)c[nH]c2n1` [Compound T-025], the Kd at CLK1 [6] was 4.8 nM; on CLK2 [7], 0.096 nM; at CLK3 [8], 6.5 nM; at CLK4 [9] it was 0.61 nM; at DYRK1A [10], 0.074 nM; on DYRK1B [11], 1.5 nM. Besides, the Kd at DYRK2 [12] is 32 nM.

Turning to `CN1CCN(c2cc(C(=O)Nc3cc4cc(-c5cnn(C)c5)ccc4cn3)ccn2)CC1` [SM08502], the IC50 in the test on CLK1 [1] was 8 nM; with CLK2 [2], […]; in the test with CLK3 [3], 22 nM; in the test on CLK4 [4] it was […]; in the test on DYRK1A [5], […]; with DYRK1B [13], […]. In addition, in the test with DYRK2 [14], the IC50 was […].

Take `Cc1ccc(-n2cc(COc3cccc4cnc(Nc5cccc(Cl)c5)nc34)nn2)c([N+](=O)[O-])c1` [DB18]: the IC50 at Mm_CLK4 [15] was 20 nM; on Rn_DYRK1A [16], greater than 100 µM.

For the molecule `CN1CCN(C(=O)C(C)(C)c2ccc(C(=O)Nc3cn4cc(-c5ccncc5)ccc4n3)cc2)CC1` [Compound T3], the IC50 is 0.67 nM in the test on CLK1 [1]; 15 nM in the test with CLK2 [2]; 110 nM in the test with CLK3 [3]; 260 nM with DYRK1A [5]; 230 nM in the test on DYRK1B [13].

With `Cc1ccc(-n2cc(COc3cccc4cnc(Nc5cccc(-c6ccc(C(=O)O)cc6)c5)nc34)nn2)c([N+](=O)[O-])c1` [Compound 10a], the remaining activity at 1 µM on Hs_CDK5/p25 (compound 1 μM) stood at 61%; on Hs_CDK9/CyclinT (compound 1 μM), 84%; at Hs_CK1ε (compound 1 μM), 93%; at Hs_GSK3β (compound 1 μM), 82%; at Hs_HASPIN (compound 1 μM), 93%; at Hs_PIM1 (compound 1 μM) it was 80%. Moreover, the remaining activity at 1 µM at Mm_CLK1 [17] (compound 1 μM, ATP 10 µM, means, n = 2, read-out: Residual kinase activity Mm_CLK1) is 15%; at Rn_DYRK1A [18] (compound 1 μM), no less than 100%. Further, the remaining activity at 10 µM was 70% at Hs_CDK5/p25 (compound 10 μM); 38% at Hs_CDK9/CyclinT (compound 10 μM); 84% at Hs_CK1ε (compound 10 μM); 32% on Hs_GSK3β (compound 10 μM); 92% on Hs_HASPIN (compound 10 μM); no less than 100% on Hs_PIM1 (compound 10 μM). Further, the remaining activity at 10 µM is 0% on Mm_CLK1 [17] (compound 10 μM, ATP 10 µM, means, n = 2, read-out: Residual kinase activity Mm_CLK1) and 84% at Rn_DYRK1A [18] (compound 10 μM). For the same molecule, the “activity against CLK1 in primary screening” value at Mm_CLK1 [17] (1 and 10 µM) is “significant activity against CLK1”. Further, the IC50 at Mm_CLK1 [19] (setting [21]) is 891 nM; at Mm_CLK2 (setting [21]) it was 844 nM; against Mm_CLK4 [20] (setting [21]) it was 762 nM; at Mm_CLK3, 3.7 µM and 3.73 µM. In addition, the Mm_CLK3/Mm_CLK1 on Mm_CLK1 [19] (ratio of IC50 values) is recorded as 4.18. The Mm_CLK3/Mm_CLK2 on Mm_CLK2 (ratio of IC50 values) came out at 4.42. Further, the Mm_CLK3/Mm_CLK4 at Mm_CLK4 [20] (ratio of IC50 values) came out at 4.90.
